Measured values published in patent publication US4342780A, “Method of depleting endogenous monoamines” (Merrell-Toraude et Cie, priority 1981, dated 1982).

Experiments:
[1] = tested on: dopamine, noradrenaline and serotonin content; assay: Effect of repeated administration on catecholamine and serotonin content of the mouse brain (Table V); type: in vivo, Male albino mice; conditions: 5 × 100 mg/kg i.p. every 12 hours
Protocol: The following example illustrates the effect of repeated administration of 2-amino-2-fluoromethyl-3(3,4-dihydroxyphenyl)propionic acid in the brain.
Male albino mice (25-30 g) from Charles River, France and dosed i.p. with 100 mg/kg of 2-amino-2-fluoromethyl-3-(3,4-dihydroxyphenyl)propionic acid every 12 hours for 5 doses. Saline solution is used as a control. The mice are sacrificed and the catecholamines, dopamine and noradrenaline, and serotonin (5-hydroxytryptamine) are determined by reverse-phase ion-pair high pressure liquid chromatography using electrochemical detection.

AADC [2] = molecular target: T1, AADC (Sus scrofa, UniProt P80041); assay: In vitro AADC inhibition: time of 90% inactivation (14CO2 trapping, DL-[1-14C]-dopa substrate); type: biochemical, hog; set-up: key to RATING: ++++: The relative activities of the compounds are rated by the given number of "plus" signs; +++: The relative activities of the compounds are rated by the given number of "plus" signs; 0-+: The relative activities of the compounds are rated by the given number of "plus" signs; conditions: CONC. 10 μM
T1 sequence (P80041 1-486): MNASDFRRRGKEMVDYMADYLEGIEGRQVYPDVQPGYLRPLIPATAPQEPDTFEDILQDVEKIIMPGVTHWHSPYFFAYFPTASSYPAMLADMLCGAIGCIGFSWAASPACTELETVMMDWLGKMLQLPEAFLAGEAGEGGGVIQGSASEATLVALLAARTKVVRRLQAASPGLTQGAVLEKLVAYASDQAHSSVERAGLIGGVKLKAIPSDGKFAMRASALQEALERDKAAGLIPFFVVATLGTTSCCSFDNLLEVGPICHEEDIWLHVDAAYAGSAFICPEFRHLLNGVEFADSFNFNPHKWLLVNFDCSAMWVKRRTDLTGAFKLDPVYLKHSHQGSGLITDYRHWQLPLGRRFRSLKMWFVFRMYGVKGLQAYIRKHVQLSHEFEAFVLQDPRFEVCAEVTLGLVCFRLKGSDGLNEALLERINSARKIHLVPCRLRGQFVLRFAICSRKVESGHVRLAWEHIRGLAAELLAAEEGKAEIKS
Protocol: AADC can be purified from hog kidney by the general method of J. Christenson et al. Archs. Biochem. Biophys., 141, 356 (1970) and G. Lancaster et al., Can. J. Biochem., 50, 791 (1972), and the specific activity of the enzyme is determined by the ^14 CO2 trapping method using DL-[1-^14 C]-dopa as the substrate (see Christenson et al.). One unit of activity is defined as the total amount of enzyme which produces 1 n mol of CO2 per minute, with DL-[1-^14 C]-dopa as substrate.
To 100 μl of 50 mM-phosphate buffer pH 7.4 containing 100 mM-mercapto-ethanol are added 5 μl of an aqueous solution containing the test compound at the desired concentration and 50 μl of an aqueous solution containing 2 units of AADC. The mixture is incubated at 37° C. and 20 μl aliquots are removed at various times. The AADC activity remaining in each aliquot is measured by the CO2 trapping method of Christenson.
The relative activities of the compounds are rated by the given number of "plus" signs.

AADC [3] = assay: Ex vivo AADC activity in organs of mice after repeated i.p. doses (Table II); set-up: species or system mice (Swiss Albino); conditions: three days, 12 h after 6th dose, vs control
Protocol: (§1) The test animals (e.g. mice or rats) are given the test compound in a suitable vehicle, either orally or by injection, each day over the period of time desired. The animals are kept on a constant time cycle, and body weights are measured daily. The animals are sacrificed by decapitation 12 to 24 hours after receiving the last dose of the test compound. Control animals receive the vehicle alone.
(§2) Immediately after death, the organs (brain, heart, and kidney) are removed and homogenized either in 50 ml phosphate buffer pH 6.8 for AADC determination or in ice-cold 0.4 M HClO4 containing 0.05% (w/v) EDTA and 0.1% (w/v) sodium bisulfite for catecholamine determination. AADC activity is determined by the ^14 CO2 trapping method of J. Christenson, supra (see Example 14) using DL-[1-^14 C]-dopa as the substrate. Catecholamines are determined by centrifuging the homogenate, adding the supernatant to alumina buffered to pH 8.0-8.4 to adsorb the catecholamines, re-extracting the catecholamines from the alumina with 0.2 M HClO4 and determining the catecholamines in the extracts using known procedures, such as by reversed-phase ion-pair HPLC with electrochemical detection.
(§3) Table II, shown below, sets forth the results obtained by testing particular compounds of Formula I in the above-described procedure in mice (Swiss Albino) after i.p. administration of the compound twice daily for three days: […]

[4] = tested on: catecholamine content (norepinephrine, dopamine); assay: Catecholamine content in organs of mice after repeated i.p. doses (Table II); type: in vivo, mice (Swiss Albino); conditions: three days, 12 h after 6th dose, vs control
Protocol: as §1, §2, §3

[5] = tested on: catecholamine levels (dopamine, noradrenaline); assay: Effect of dopamine injection on catecholamine levels in heart and brain of mice treated with test compound (Table VI); type: in vivo, Male albino mice; conditions: ± SEM, n = 5; for Heart Dopamine: control 20 ± 2; for Brain Noradrenaline: control 516 ± 24; for Heart Noradrenaline: control 760 ± 87; for Brain Dopamine: control 1183 ± 28
Protocol: Saline solution is used as a control. The mice are sacrificed and the catecholamines, dopamine and noradrenaline, and serotonin (5-hydroxytryptamine) are determined by reverse-phase ion-pair high pressure liquid chromatography using electrochemical detection. […] Twelve hours after the second dose, one group of animals received an i.p. injection of 50 mg/kg of dopamine-HCl (Sigma, Chem. Co), the other group received saline instead. Three hours after the dopamine injection, the animals were killed and catecholamines were measured in heart and brain as described in Example 18.

[6] = 2 × 100 mg/kg test compound + dopamine 50 mg/kg i.p., * marked
[7] = 2 × 100 mg/kg test compound + saline, * marked

With `NC(CF)(Cc1ccc(O)c(O)c1)C(=O)O` (centres unmarked) [3,4-diOH-phenyl, 2-Amino-2-fluoromethyl-3-(3,4-dihydroxyphenyl)propionic acid] the “% Reduction Dopamine (brain)” value ([1]; vs saline) was -97%, the “% Reduction Noradrenaline (brain)” value ([1]; vs saline) was -94% and the “% Reduction Serotonin (brain)” value ([1]; vs saline) was -83%. For the same compound, the “Noradrenaline content of the brain” value ([1]; ± S.E.M., saline 310 ± 15) was 19.6 ± 3 ng/g, the “Dopamine content of the brain” value ([1]; ± S.E.M., saline 722 ± 47) was 18.6 ± 2 ng/g and the “Serotonin content of the brain” value ([1]; ± S.E.M., saline 1685 ± 29) was 282 ± 25 ng/g. The “TIME OF 90% INACTIVATION” value (AADC [2]; pH 7.4, 37° C.) was 1 to 2 min, the RATING (AADC [2]; relative activity) was “++++” and the “% CHANGE AADC Brain” value (AADC [3]; 10 mg/kg i.p. twice daily) was -86%. The “% CHANGE AADC Kidney” value (AADC [3]; 10 mg/kg i.p. twice daily) was -95%, the “% CHANGE AADC Brain” value (AADC [3]; 100 mg/kg i.p. twice daily) was -99% and the “% CHANGE AADC Kidney” value (AADC [3]; 100 mg/kg i.p. twice daily) was -99%. For the same compound, the “% CHANGE NOREPINEPHRINE Brain” value ([4]; 10 mg/kg i.p. twice daily, * not significant) was -55%, the “% CHANGE NOREPINEPHRINE Heart” value ([4]; 10 mg/kg i.p. twice daily, * not significant (-25*, -7*)) was -39% and the “% CHANGE DOPAMINE Brain” value ([4]; 10 mg/kg i.p. twice daily, * not significant (-25*, -9*)) was 0%. For the same compound, the “% CHANGE NOREPINEPHRINE Brain” value ([4]; 100 mg/kg i.p. twice daily) was -80%, the “% CHANGE NOREPINEPHRINE Heart” value ([4]; 100 mg/kg i.p. twice daily) was -80% and the “% CHANGE DOPAMINE Brain” value ([4]; 100 mg/kg i.p. twice daily, * not significant (-35*)) was -80%. For the same compound, the “Heart Dopamine” value [5, 6] was 429 ± 39 ng/g, the “Brain Noradrenaline” value [5, 6] was 42 ± 4 ng/g and the “Heart Noradrenaline” value ([5]; 2 × 100 mg/kg test compound + dopamine 50 mg/kg i.p.) was 882 ± 47 ng/g. For the same compound, the “Brain Dopamine” value [5, 6] was 92 ± 8 ng/g, the “Heart Dopamine” value ([5]; 2 × 100 mg/kg test compound + saline) was 98 ± 62 ng/g and the “Brain Noradrenaline” value [5, 7] was 44 ± 6 ng/g. The “Heart Noradrenaline” value [5, 7] was 173 ± 24 ng/g and the “Brain Dopamine” value [5, 7] was 47 ± 5 ng/g.
